In brackets after ≈: the same amount, converted by molar mass.
Legend:
[1] = system: Str. pneumoniae; test: In vitro antibacterial activity, MIC by tube dilution; assay type: cell-based; conditions: Streptococcus pneumoniae, Nutrient Broth, overnight, 37° C.
[2] = system: Str. pyogenes; test: as above; assay type: cell-based; conditions: Streptococcus pyogenes, Nutrient Broth, overnight, 37° C.
[3] = system: Staph. aureus; test: as above; assay type: cell-based; conditions: Staphylococcus aureus, Nutrient Broth, overnight, 37° C.
[4] = system: Staph. aureus (Pen-R); test: as above; assay type: cell-based; conditions: Staphylococcus aureus, Nutrient Broth, overnight, 37° C.
[5] = system: Str. faecalis; test: as above; assay type: cell-based; conditions: Enterococcus faecalis, Nutrient Broth, overnight, 37° C.
[6] = system: E. coli; test: as above; assay type: cell-based; conditions: Escherichia coli, Nutrient Broth, overnight, 37° C.
[7] = system: K. pneumoniae; test: as above; assay type: cell-based; conditions: Klebsiella pneumoniae, Nutrient Broth, overnight, 37° C.
[8] = system: Pr. mirabilis; test: as above; assay type: cell-based; conditions: Proteus mirabilis, Nutrient Broth, overnight, 37° C.
[9] = system: Pr. vulgaris; test: as above; assay type: cell-based; conditions: Proteus vulgaris, Nutrient Broth, overnight, 37° C.
[10] = system: Pr. morganii; test: as above; assay type: cell-based; conditions: Morganella morganii, Nutrient Broth, overnight, 37° C.
[11] = system: Pr. rettgeri; test: as above; assay type: cell-based; conditions: Providencia rettgeri, Nutrient Broth, overnight, 37° C.
[12] = system: Ser. marcescens; test: as above; assay type: cell-based; conditions: Serratia marcescens, Nutrient Broth, overnight, 37° C.
[13] = system: Ent. cloacae; test: as above; assay type: cell-based; conditions: Enterobacter cloacae, Nutrient Broth, overnight, 37° C.
[14] = system: Ps. aeruginosa; test: as above; assay type: cell-based; conditions: Pseudomonas aeruginosa, Nutrient Broth, overnight, 37° C.
[15] = system: Ps. (Carb-R); test: as above; assay type: cell-based; conditions: Nutrient Broth, overnight, 37° C.
[16] = system: Ps. aeruginosa; test: Protective effect in the intramuscular treatment of infected mice; assay type: in vivo; conditions: Pseudomonas aeruginosa, im, I.M., column of the in vitro table, read-out: PD50 I.M.
Protocol: The in vivo therapeutic efficacy of the compound of Example 1 after intramuscular administration to mice experimentally infected with various organisms are shown in the following Table. The PD50 (dose in mg/kg required to give protection to 50% of the infected mice) is indicated.
Treatment Schedule: Mice were treated i.m. with drugs 0 and 2 hours

[17] = Blood levels in mice after intramuscular administration; assay type: in vivo; conditions: mouse, im, 20 mg/kg
Description: (§1) Compounds were solubilized in 0.1 M phosphate buffer pH 7. Values are fro
(§2) a single test; 4 mice per compound.

[18] = Urinary recovery after intramuscular administration to mice; assay type: in vivo; conditions: mouse, urine, im, 20 mg/kg, 0-24 hours after administration, 0.1 M phosphate buffer pH 7, single test, 4 mice, read-out: Urinary recovery, Percentage of Dose Recovered
Description: as §1, §2

SMILES: C[C@@H](O)[C@H]1C(=O)N2C(C(=O)[O-])=C(SCCSc3cccc[n+]3C)C[C@H]12 [Example 1, (5R,6S) 6-(1R-hydroxyethyl)-3-[(1-methylpyridinium-2-yl)-2-thioethylthio]-7-oxo-1-azabicyclo (3.2.0)hept-2-ene-2-carboxylate]
- MIC [1]: 0.0005 µg/mL (≈ 0.00131 µM)
- MIC [2]: 0.0005 µg/mL (≈ 0.00131 µM)
- MIC ([3]; Staph. aureus + 50% serum): 0.008 µg/mL
- MIC ([3]; Staph. aureus): 0.004 µg/mL (≈ 0.0105 µM)
- MIC [4]: 0.004 µg/mL (≈ 0.0105 µM)
- MIC [5]: 0.13 µg/mL (≈ 0.342 µM)
- MIC ([6]; first line (strain not named)): 0.008 µg/mL (≈ 0.021 µM)
- MIC ([6]; second line (strain not named)): 0.016 µg/mL (≈ 0.0421 µM)
- MIC ([7]; first line (strain not named)): 0.03 µg/mL (≈ 0.0788 µM)
- MIC ([7]; second line (strain not named)): 0.06 µg/mL (≈ 0.158 µM)
- MIC [8]: 0.016 µg/mL (≈ 0.0421 µM)
- MIC [9]: 0.016 µg/mL (≈ 0.0421 µM)
- MIC [10]: 0.06 µg/mL (≈ 0.158 µM)
- MIC [11]: 0.13 µg/mL (≈ 0.342 µM)
- MIC [12]: 0.03 µg/mL (≈ 0.0788 µM)
- MIC ([13]; first line (strain not named)): 0.06 µg/mL (≈ 0.158 µM)
- MIC ([13]; second line (strain not named)): 0.13 µg/mL (≈ 0.342 µM)
- MIC [14]: 8 µg/mL (≈ 21 µM)
- MIC [15]: 2 µg/mL (≈ 5.26 µM)
- ED50 [16]: 2.9 mg/kg
- AUC [17]: 4100 ng·h/mL
- concentration at 10 min ([17]; 10 min after administration, read-out: Blood Level): 11100 ng/mL
- concentration at 20 min ([17]; 20 min after administration, read-out: Blood Level): 8000 ng/mL
- concentration at 0.5 h ([17]; 30 min after administration, read-out: Blood Level): 3600 ng/mL
- concentration at 0.75 h ([17]; 45 min after administration, read-out: Blood Level): 1000 ng/mL
- concentration at 1 h ([17]; 60 min after administration, read-out: Blood Level): < 300 ng/mL
- concentration at 1.5 h ([17]; 90 min after administration, read-out: Blood Level): < 300 ng/mL
- half-life ([17]; read-out: t1/2 (half-life)): 8 min
- dose excreted at 24 h [18]: 31.5%

— patent publication US4880922A, “Carbapenems with quaternized heterothioalkylthio substitution at position 2” (Bristol-Myers Company, priority 1985, dated 1989)
